Where a SMILES comes first, the peptide text is derived from it. Bridges are numbered along the chain shown (N, C = ends).
Target: human α7-containing nAChRs (Homo sapiens, UniProt P36544)
Test: cell-based
Assay type: cell-based
Settings: SEM

human α7-containing nAChRs, sequence (P36544 23-502 limits assumed): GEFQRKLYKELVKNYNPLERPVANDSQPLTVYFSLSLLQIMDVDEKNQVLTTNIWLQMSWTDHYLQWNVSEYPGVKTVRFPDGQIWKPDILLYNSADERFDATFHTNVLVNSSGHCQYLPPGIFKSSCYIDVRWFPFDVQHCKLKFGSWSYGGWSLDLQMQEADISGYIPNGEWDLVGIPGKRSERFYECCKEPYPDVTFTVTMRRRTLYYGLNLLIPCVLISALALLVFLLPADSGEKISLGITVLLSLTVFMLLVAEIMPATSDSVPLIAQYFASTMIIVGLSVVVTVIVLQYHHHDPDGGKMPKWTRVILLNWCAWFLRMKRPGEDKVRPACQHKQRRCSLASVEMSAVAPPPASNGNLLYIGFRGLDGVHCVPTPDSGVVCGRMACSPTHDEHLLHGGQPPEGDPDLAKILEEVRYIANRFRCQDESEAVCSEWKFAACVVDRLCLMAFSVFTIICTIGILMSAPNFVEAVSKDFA

Row | SMILES | IC50 [µM]
1 | CC(C)[C@H](NC(=O)[C@@H]1CSSC[C@@H]2NC(=O)[C@@H](NC(=O)[C@@H](N)CO)CSSC[C@H](NC(=O)[C@H](C)NC(=O)[C@@H]3CCCN3C(=O)[C@H](CC(N)=O)NC(=O)[C@H](CCCNC(=N)N)NC(=O)[C@H](C)NC2=O)C(=O)N[C@@H](CCCNC(=N)N)C(=O)N[C@@H](Cc2c[nH]cn2)C(=O)N[C@@H](CC(N)=O)C(=O)N[C@@H](Cc2c[nH]cn2)C(=O)N2CCC[C@H]2C(=O)N1)C(N)=O [gAusIA] (H-SCCARNPACRHNHPCV-NH2; disulfide 2-9, 3-15) | 47 ± 6.7
2 | CC[C@H](C)[C@@H]1NC(=O)[C@H](CC(N)=O)NC(=O)[C@@H]2CCCN2C(=O)[C@H](CC(N)=O)NC(=O)[C@H](CC(N)=O)NC(=O)[C@H](C(C)C)NC(=O)[C@H](CCCNC(=N)N)NC(=O)[C@@H]2CSSC[C@H](NC(=O)CNC(=O)[C@@H](N)CO)C(=O)N[C@@H](CSSC[C@@H](C(N)=O)NC1=O)C(=O)N[C@@H](CO)C(=O)N[C@@H](CC(N)=O)C(=O)N1CCC[C@H]1C(=O)N[C@@H](C)C(=O)N2 [gLsIA, reference compound] (H-SGCCSNPACRVNNPNIC-NH2; disulfide 3-9, 4-17) | 0.3 ± 0.063
3 | CC[C@H](C)[C@@H]1NC(=O)[C@@H]2CSSC[C@H](NC(=O)CN)C(=O)N[C@@H](CSSC[C@@H](C(N)=O)NC(=O)[C@H](CC(C)C)NC(=O)[C@H](CC(=O)O)NC(=O)[C@@H]3CCCN3C(=O)[C@H](CC(N)=O)NC(=O)[C@H](CC(N)=O)NC(=O)[C@H](CC(C)C)NC1=O)C(=O)N[C@@H](CO)C(=O)N[C@@H](CCCNC(=N)N)C(=O)N1CCC[C@H]1C(=O)N1CCC[C@H]1C(=O)N2 [gTxIA [A10L], reference compound] (H-GCCSRPPCILNNPDLC-NH2; disulfide 2-8, 3-16) | 0.5 ± 0.036
4 | CC[C@H](C)[C@@H]1NC(=O)[C@@H]2CSSC[C@H](NC(=O)CN)C(=O)N[C@@H](CSSC[C@@H](C(N)=O)NC(=O)[C@H](CC(C)C)NC(=O)[C@H](CC(=O)O)NC(=O)[C@@H]3CCCN3C(=O)[C@H](CC(N)=O)NC(=O)[C@H](CC(N)=O)NC(=O)[C@H](CC(C)C)NC1=O)C(=O)N[C@@H](CO)C(=O)N[C@@H](C)C(=O)N[C@@H](CCCNC(=N)N)C(=O)N1CCC[C@H]1C(=O)N1CCC[C@H]1C(=O)N2 [gTxIA[∇A5 A10L]] (H-GCCSARPPCILNNPDLC-NH2; disulfide 2-9, 3-17) | 18 ± 4
5 | CC(C)[C@H](NC(=O)[C@@H]1CSSC[C@H](NC(=O)[C@@H](N)CO)C(=O)N[C@H]2CSSC[C@H](NC(=O)[C@H](C)NC(=O)[C@@H]3CCCN3C(=O)[C@H](CC(N)=O)NC(=O)[C@H](CCCNC(=N)N)NC(=O)[C@H](C)NC2=O)C(=O)N[C@@H](CCCNC(=N)N)C(=O)N[C@@H](Cc2c[nH]cn2)C(=O)N[C@@H](CC(N)=O)C(=O)N[C@@H](Cc2c[nH]cn2)C(=O)N2CCC[C@H]2C(=O)N1)C(N)=O [rAusIA] (H-SCCARNPACRHNHPCV-NH2; disulfide 2-15, 3-9) | 26 ± 5
6 | CC[C@H](C)[C@@H]1NC(=O)[C@H](CC(N)=O)NC(=O)[C@@H]2CCCN2C(=O)[C@H](CC(N)=O)NC(=O)[C@H](CC(N)=O)NC(=O)[C@H](C(C)C)NC(=O)[C@H](CCCNC(=N)N)NC(=O)[C@@H]2CSSC[C@H](NC(=O)[C@@H](NC(=O)CNC(=O)[C@@H](N)CO)CSSC[C@@H](C(N)=O)NC1=O)C(=O)N[C@@H](CO)C(=O)N[C@@H](CC(N)=O)C(=O)N1CCC[C@H]1C(=O)N[C@@H](C)C(=O)N2 [rLsIA, reference compound] (H-SGCCSNPACRVNNPNIC-NH2; disulfide 3-17, 4-9) | 41 ± 3.4
7 | CC[C@H](C)[C@@H]1NC(=O)[C@@H]2CSSC[C@H](NC(=O)[C@@H](NC(=O)CN)CSSC[C@@H](C(N)=O)NC(=O)[C@H](CC(C)C)NC(=O)[C@H](CC(=O)O)NC(=O)[C@@H]3CCCN3C(=O)[C@H](CC(N)=O)NC(=O)[C@H](CC(N)=O)NC(=O)[C@H](CC(C)C)NC1=O)C(=O)N[C@@H](CO)C(=O)N[C@@H](CCCNC(=N)N)C(=O)N1CCC[C@H]1C(=O)N1CCC[C@H]1C(=O)N2 [rTxIA [A10L], reference compound] (H-GCCSRPPCILNNPDLC-NH2; disulfide 2-16, 3-8) | 6 ± 0.123
8 | CC[C@H](C)[C@@H]1NC(=O)[C@@H]2CSSC[C@H](NC(=O)[C@@H](NC(=O)CN)CSSC[C@@H](C(N)=O)NC(=O)[C@H](CC(C)C)NC(=O)[C@H](CC(=O)O)NC(=O)[C@@H]3CCCN3C(=O)[C@H](CC(N)=O)NC(=O)[C@H](CC(N)=O)NC(=O)[C@H](CC(C)C)NC1=O)C(=O)N[C@@H](CO)C(=O)N[C@@H](C)C(=O)N[C@@H](CCCNC(=N)N)C(=O)N1CCC[C@H]1C(=O)N1CCC[C@H]1C(=O)N2 [rTxIA[∇A5 A10L]] (H-GCCSARPPCILNNPDLC-NH2; disulfide 2-17, 3-9) | 39 ± 10.3

Source: paper PMC8578332 (Scientific Reports, 2021)
